Paper PMC3230598, “Structural Studies of β-Carbonic Anhydrase from the Green Alga Coccomyxa: Inhibitor Complexes with Anions and Acetazolamide” (PLoS ONE, 2011)

B1: β-carbonic anhydrase from Coccomyxa sp. (enzyme, UniProt Q96554 1-227, looked up)
chain: MSAKDTADLSPLLEANRKWADECAAKDSTYFSKVAGSQAPEYLYIGCADSRVSPAQLFNMAPGEVFVQRNVGNLVSNKDLNCMSCLEYTVDHLKIKHILVCGHYNCGACKAGLVWHPKTAGVTNLWISDVREVRDKNAAKLHGLSADDAWDKMVELNVEAQVFNVCASPIVQAAWARGQPLSVHGIVYTPGTGLVKELIKPITGMEDAGALLRADLKQHCFFSESLA
notes: β-carbonic anhydrase of Coccomyxa sp., 227 amino acids, GenBank AAC33484.1; Met-1 to Asp-5 not seen in the electron density, models hold residues 6-227; One zinc ion per monomer; crystallised with acetazolamide, phosphate, thiocyanate, azide or iodide; also called Co-CA; Coccomyxa β-CA; source: E. coli, over-expressed, purified (amylose-resin column, Q-Sepharose Fast Flow)

Assays:
Co-CA (Coccomyxa β-CA) = biological target: T1, Co-CA (Coccomyxa β-CA) (Coccomyxa sp. PA, UniProt Q96554); assay: X-ray crystal structure of co-crystal, […] Å; format: binding; settings: 15 mM NaSCN, 1.8 M NaKPO4 pH 7.2; N bound to active-site zinc (2.0 Å); also at dimer interface
T1 construct: zinc enzyme, homotetramer (dimer of dimers); residues 6-227 modelled

[1] = biological target: the molecule itself; assay: crystal structure; Co-CA at ~35 mg/ml in 10 mM Tris-HCl pH 7.4, hanging drop at 18°C, 1.6-2.3 M Na,KPO4 pH 7.2, with acetazolamide, phosphate, thiocyanate, azide or iodide; space group P43212; one dimer in the asymmetric unit, tetramer by a crystallographic 2-fold

| Molecule | X-ray crystal structure of co-crystal, 2.5 Å (Co-CA (Coccomyxa β-CA)) | stoichiometry N [1] |
| --- | --- | --- |
| N#CS [SCN, thiocyanate] | Azide and thiocyanate ions in the active site of Co-CA were clearly defined |  |
| B1 |  | 4 |
